Where a SMILES comes first, the peptide text is derived from it. Bridges are numbered along the chain shown (N, C = ends). [ ]: non-standard residue; d: D form. The star is where a group is joined. Phe(4-COOH) = N[C@@H](Cc1ccc(C(=O)O)cc1)C(=O)O; Bip = N[C@@H](Cc1ccc(-c2ccccc2)cc1)C(=O)O; 4Pal = N[C@@H](Cc1ccncc1)C(=O)O; Cha = N[C@@H](CC1CCCCC1)C(=O)O; Carboxymethyl = O=C(O)C*; NMeA = CN[C@@H](C)C(=O)O; Orn = NCCC[C@H](N)C(=O)O; Aun = NCCCCCCCCCCC(=O)O; Dab = NCC[C@H](N)C(=O)O
Molecular target: T1, PD-1/PD-L1 interaction (PE-labeled human PD-L1-Ig binding to Jurkat cell line over-expressing human PD-1) (Homo sapiens, UniProt Q15116)
T1 construct: expressed in transfected cells; host or cells: Jurkat
T1 sequence (Q15116 25-288): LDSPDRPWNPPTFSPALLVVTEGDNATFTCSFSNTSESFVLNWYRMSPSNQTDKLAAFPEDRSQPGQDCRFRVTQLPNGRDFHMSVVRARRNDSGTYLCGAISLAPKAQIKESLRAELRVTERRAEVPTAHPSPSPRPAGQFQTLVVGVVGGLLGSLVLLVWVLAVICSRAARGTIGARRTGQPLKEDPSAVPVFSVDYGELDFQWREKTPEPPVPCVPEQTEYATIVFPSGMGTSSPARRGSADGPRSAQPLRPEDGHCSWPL
Experiment: Jurkat-PD-1 Cell Binding High-Content Screening Assay (CBA)
Settings: Jurkat-hPD-1 cells, PE-labeled PD-L1-Ig 20 nM final; read-out: Jurkat HPD1 PDL1 IC50
Outline: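 Jurkat-hPD-1 cells (8×10^3/well) in DMEM with 10% fetal calf serum were preincubated with compound for 2 h at 37 °C. PE-labeled PD-L1-Ig was then added at 20 nM final for 1 h. Cells were fixed in paraformaldehyde with Hoechst 33342, washed and imaged by high-content imaging.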

SMILES	IC50
CC(C)C[C@H]1NC(=O)[C@H](C)N(C)C(=O)[C@H](Cc2ccc(O)cc2)NC(=O)[C@H](Cc2ccc(-c3ccccc3)cc2)NC(=O)[C@H](C(C)C)NC(=O)[C@H](Cc2c[nH]c3ccccc23)NC(=O)[C@H](CC(=O)O)NC(=O)[C@H](Cc2ccc(OCC(=O)O)cc2)NC(=O)[C@H](Cc2ccncc2)NC(=O)CSC[C@@H](C(=O)N[C@@H](CCN)C(=O)NCCCCCCCCCCC(=O)O)NC(=O)[C@H]([C@@H](C)O)NC(=O)[C@H](C(C)C)NC(=O)[C@H](CC2CCCCC2)NC(=O)[C@H](CCN)NC1=O [Example 1324] ({CH2CO}-[4Pal]Y(Carboxymethyl)DWV[Bip]Y[NMeA][dL][Dab][Cha]VTC[Dab][Aun]-OH; thioether N-14)	34.2 nM
CC(C)C[C@@H]1NC(=O)[C@H](Cc2c[nH]c3ccccc23)NC(=O)[C@H](CC(=O)O)NC(=O)[C@H](Cc2ccncc2)NC(=O)[C@H](Cc2ccc(OCC(=O)O)cc2)NC(=O)CSC[C@@H](C(=O)N[C@@H](CCN)C(=O)NCCCCCCCCCCC(=O)O)NC(=O)[C@H]([C@@H](C)O)NC(=O)[C@H](C(C)C)NC(=O)[C@H](CC2CCCCC2)NC(=O)[C@H](CCN)NC(=O)[C@@H](CC(C)C)NC(=O)[C@H](C)N(C)C(=O)[C@H](Cc2ccc(O)cc2)NC(=O)[C@H](Cc2ccc(-c3ccccc3)cc2)NC1=O [Example 1325] ({CH2CO}-Y(Carboxymethyl)[4Pal]DWL[Bip]Y[NMeA][dL][Dab][Cha]VTC[Dab][Aun]-OH; thioether N-14)	28.1 nM
CC(C)C[C@@H]1NC(=O)[C@H](Cc2c[nH]c3ccccc23)NC(=O)[C@H](CC(=O)O)NC(=O)[C@H](Cc2ccc(C(=O)O)cc2)NC(=O)[C@H](Cc2ccc(OCC(=O)O)cc2)NC(=O)CSC[C@@H](C(=O)N[C@@H](CCN)C(=O)NCCCCCCCCCCC(=O)O)NC(=O)[C@H]([C@@H](C)O)NC(=O)[C@H](C(C)C)NC(=O)[C@H](CC2CCCCC2)NC(=O)[C@H](CCN)NC(=O)[C@@H](CC(C)C)NC(=O)[C@H](C)N(C)C(=O)[C@H](C(C)C)NC(=O)[C@H](Cc2ccc(-c3ccccc3)cc2)NC1=O [Example 1326] ({CH2CO}-Y(Carboxymethyl)[Phe(4-COOH)]DWL[Bip]V[NMeA][dL][Dab][Cha]VTC[Dab][Aun]-OH; thioether N-14)	19.8 nM
CC(C)C[C@@H]1NC(=O)[C@H](Cc2c[nH]c3ccccc23)NC(=O)[C@H](CC(=O)O)NC(=O)[C@H](Cc2ccc(C(=O)O)cc2)NC(=O)[C@H](Cc2ccc(OCC(=O)O)cc2)NC(=O)CSC[C@@H](C(=O)N[C@@H](CCCN)C(=O)NCCCCCCCCCCC(=O)O)NC(=O)[C@H](CCC(=O)O)NC(=O)[C@H](C(C)C)NC(=O)[C@H](CC2CCCCC2)NC(=O)[C@H](CCN)NC(=O)[C@@H](CC(C)C)NC(=O)[C@H](C)N(C)C(=O)[C@H](C(C)C)NC(=O)[C@H](Cc2ccc(-c3ccccc3)cc2)NC1=O [Example 1328] ({CH2CO}-Y(Carboxymethyl)[Phe(4-COOH)]DWL[Bip]V[NMeA][dL][Dab][Cha]VEC[Orn][Aun]-OH; thioether N-14)	24 nM
CC(C)C[C@@H]1NC(=O)[C@H](Cc2c[nH]c3ccccc23)NC(=O)[C@H](CC(=O)O)NC(=O)[C@H](Cc2ccncc2)NC(=O)[C@H](Cc2ccc(OCC(=O)O)cc2)NC(=O)CSC[C@@H](C(=O)N[C@@H](CCN)C(=O)NCCCCCCCCCCC(=O)O)NC(=O)[C@H]([C@@H](C)O)NC(=O)[C@H](C(C)C)NC(=O)[C@H](CC2CCCCC2)NC(=O)[C@H](CCN)NC(=O)[C@@H](CC(C)C)NC(=O)[C@H](C)N(C)C(=O)[C@H](C(C)C)NC(=O)[C@H](Cc2ccc(-c3ccccc3)cc2)NC1=O [Example 1329] ({CH2CO}-Y(Carboxymethyl)[4Pal]DWL[Bip]V[NMeA][dL][Dab][Cha]VTC[Dab][Aun]-OH; thioether N-14)	15.3 nM
CC(C)C[C@@H]1NC(=O)[C@H](Cc2c[nH]c3ccccc23)NC(=O)[C@H](CC(=O)O)NC(=O)[C@H](Cc2ccncc2)NC(=O)[C@H](Cc2ccc(OCC(=O)O)cc2)NC(=O)CSC[C@@H](C(=O)N[C@@H](CCN)C(=O)NCCCCCCCCCCC(=O)O)NC(=O)[C@H](CCC(=O)O)NC(=O)[C@H](C(C)C)NC(=O)[C@H](CC2CCCCC2)NC(=O)[C@H](CCN)NC(=O)[C@@H](CC(C)C)NC(=O)[C@H](C)N(C)C(=O)[C@H](C(C)C)NC(=O)[C@H](Cc2ccc(-c3ccccc3)cc2)NC1=O [Example 1330] ({CH2CO}-Y(Carboxymethyl)[4Pal]DWL[Bip]V[NMeA][dL][Dab][Cha]VEC[Dab][Aun]-OH; thioether N-14)	14.1 nM
CC(C)C[C@@H]1NC(=O)[C@H](Cc2c[nH]c3ccccc23)NC(=O)[C@H](CC(=O)O)NC(=O)[C@H](Cc2ccncc2)NC(=O)[C@H](Cc2ccc(OCC(=O)O)cc2)NC(=O)CSC[C@@H](C(=O)N[C@@H](CCCN)C(=O)NCCCCCCCCCCC(=O)O)NC(=O)[C@H]([C@@H](C)O)NC(=O)[C@H](C(C)C)NC(=O)[C@H](CC2CCCCC2)NC(=O)[C@H](CCN)NC(=O)[C@@H](CC(C)C)NC(=O)[C@H](C)N(C)C(=O)[C@H](C(C)C)NC(=O)[C@H](Cc2ccc(-c3ccccc3)cc2)NC1=O [Example 1331] ({CH2CO}-Y(Carboxymethyl)[4Pal]DWL[Bip]V[NMeA][dL][Dab][Cha]VTC[Orn][Aun]-OH; thioether N-14)	12.3 nM
CC(C)C[C@@H]1NC(=O)[C@H](Cc2c[nH]c3ccccc23)NC(=O)[C@H](CC(=O)O)NC(=O)[C@H](Cc2ccncc2)NC(=O)[C@H](Cc2ccc(OCC(=O)O)cc2)NC(=O)CSC[C@@H](C(=O)N[C@@H](CCCN)C(=O)NCCCCCCCCCCC(=O)O)NC(=O)[C@H](CCC(=O)O)NC(=O)[C@H](C(C)C)NC(=O)[C@H](CC2CCCCC2)NC(=O)[C@H](CCN)NC(=O)[C@@H](CC(C)C)NC(=O)[C@H](C)N(C)C(=O)[C@H](C(C)C)NC(=O)[C@H](Cc2ccc(-c3ccccc3)cc2)NC1=O [Example 1332] ({CH2CO}-Y(Carboxymethyl)[4Pal]DWL[Bip]V[NMeA][dL][Dab][Cha]VEC[Orn][Aun]-OH; thioether N-14)	14.5 nM
CC(C)C[C@@H]1NC(=O)[C@H](Cc2c[nH]c3ccccc23)NC(=O)[C@H](CC(=O)O)NC(=O)[C@H](Cc2ccc(OCC(=O)O)cc2)NC(=O)[C@H](Cc2ccccc2)NC(=O)CSC[C@@H](C(=O)N[C@@H](CCN)C(=O)NCCCCCCCCCCC(=O)O)NC(=O)[C@H]([C@@H](C)O)NC(=O)[C@H](C(C)C)NC(=O)[C@H](CC(C)C)NC(=O)[C@H](CC(N)=O)NC(=O)[C@@H](CC(C)C)NC(=O)[C@H](C)N(C)C(=O)[C@H](C(C)C)NC(=O)[C@H](Cc2ccc(-c3ccccc3)cc2)NC1=O [Example 1333] ({CH2CO}-FY(Carboxymethyl)DWL[Bip]V[NMeA][dL]NLVTC[Dab][Aun]-OH; thioether N-14)	67.3 nM
CC(C)C[C@@H]1NC(=O)[C@H](Cc2c[nH]c3ccccc23)NC(=O)[C@H](CC(=O)O)NC(=O)[C@H](Cc2ccc(OCC(=O)O)cc2)NC(=O)[C@H](Cc2ccccc2)NC(=O)CSC[C@@H](C(=O)N[C@@H](CCN)C(=O)NCCCCCCCCCCC(=O)O)NC(=O)[C@H](CCC(=O)O)NC(=O)[C@H](C(C)C)NC(=O)[C@H](CC(C)C)NC(=O)[C@H](CC(N)=O)NC(=O)[C@@H](CC(C)C)NC(=O)[C@H](C)N(C)C(=O)[C@H](C(C)C)NC(=O)[C@H](Cc2ccc(-c3ccccc3)cc2)NC1=O [Example 1334] ({CH2CO}-FY(Carboxymethyl)DWL[Bip]V[NMeA][dL]NLVEC[Dab][Aun]-OH; thioether N-14)	117 nM
